# Experiments:
# [1] = tested on: TNFα; test: TNFα release from UV-B irradiated human epidermal keratinocytes (ELISA); type: cell-based; settings: Keratinocyte, light or radiation study, UV-B 25 mJ/cm^2 (280-312 nm), read-out: IC50 of TNFα inhibition
# Procedure: Normal human epidermal keratinocytes cultures were utilized to measure the release of proinflammatory cytokines and chemokines. Primary epidermal keratinocytes from neonatal donors were used from human origin and purchased from Thermo-Fisher (Cat No. A13401). […] Cells were cultured until the second passage and then acclimated for 48 hours more before UV-B irradiation. Dosing procedures and cell groups were identified using appropriate cell culture 24-well plates. The cell culture incubator was set at 5% v/v CO2 with temperature and humidity maintained at 36-38° C. and 40-70%, respectively. The test and control substances were administered to HKGS-depleted medium in triplicates. A fixed 5 μL/well from 100× stock dose volume was administered to 500 μL of media to each cell culture well on Day 3 and pre-incubated for 6 hours and then post-UVB incubated for 18 hours. […] Media supernatants were harvested and analyzed for TNFα and IL-1β levels by ELISA method. Cytokine levels were assessed from cell culture media supernatants using BD Biosciences OptEIA™ Human TNFα (Cat. No. 555212) and IL-1β (Cat. No. 557953) and ELISA set kit and Reagent Set B (Cat. No. 550534) according the manufacture's specifications. Absorbance was measured at 450 nm using a plate reader and calculated cytokine levels were determined from a standard curve.
# [2] = tested on: CXCL5; test: CXCL5 chemokine secretion by UV-B irradiated NHEKs (ELISA); type: cell-based, human
# Procedure: Normal human epidermal keratinocytes cultures were utilized to measure the release of proinflammatory cytokines and chemokines. Primary epidermal keratinocytes from neonatal donors were used from human origin and purchased from Thermo-Fisher (Cat No. A13401). […] Cells were cultured until the second passage and then acclimated for 48 hours more before UV-B irradiation. Dosing procedures and cell groups were identified using appropriate cell culture 24-well plates. The cell culture incubator was set at 5% v/v CO2 with temperature and humidity maintained at 36-38° C. and 40-70%, respectively. The test and control substances were administered to HKGS-depleted medium in triplicates. A fixed 5 μL/well from 100× stock dose volume was administered to 500 μL of media to each cell culture well on Day 3 and pre-incubated for 6 hours and then post-UVB incubated for 18 hours. […] CXCL5 levels were quantified by enzyme-linked immunosorbent assay (ELISA) after UV-B irradiation and incubation with test and control materials. CXCL5 levels were assessed from cell culture media supernatants using R&D Systems Human CXCL5/ENA-78 DuoSet ELISA kit (Cat. No. DY254-05) according to the manufacture's specifications. Absorbance was measured at 450 nm using plate reader and cytokine levels were calculated from a standard curve.
# [3] = tested on: human dermal fibroblast cells; type: cell-based; settings: 24 h
# Procedure: Primary dermal fibroblasts cells of human origin were cultured in vitro using standard conditions (37° C., 95% v/v air, 5% v/v CO2). Primary dermal fibroblasts from neonatal donor were used from human origin and purchased from Thermo-Fisher (Cat No. […]). […] Cells were cultured until the second passage and then acclimated for 48 hours before UVA irradiation and dosing procedures conducted in 24-well plates. On Day 3, test materials were dosed to cell culture media and pre-incubated for 6 hours. Treatment media was then removed and replaced with phosphate buffer saline (PBS) without test materials and Ultraviolet-A (UV-A) was irradiated at 12.5 J/cm^2 using FS-20/T-12 bulbs (315-400 nm). After UV-A irradiation, PBS was replaced with fresh DMEM medium with test materials and incubated for 18 hours at standard culture conditions. After incubation, culture medium supernatants were harvested and used to measure human IL-6 levels by ELISA method. In vitro dosing route was selected to test the activity of KLS-13022 after pro-inflammatory inducer UV-A irradiation, since isolated human cell culture provide direct activity indication and specific cell-type effects. Human cells were selected as relevant to cell types within skin tissues for this development program. […] Absorbance was measured at 490 nm using plate reader and cell viability was calculated as a percent of control. […]
# [4] = tested on: human 3D cornea-like EPIOCULAR; test: Eye irritation, EPIOCULAR reconstructed cornea-like model, OECD 492 (MTT); type: cell-based; settings: human, 30 min
# Procedure: Ocular irritancy: The purpose of this study was to evaluate any potential ocular irritation activity of KLS-13022 formulations compared to vehicle-only treated tissues in vitro on human 3D cornea-like EPIOCULAR by topical application according to OECD 492 protocol. Test formulations of KLS-13022 up to 3% w/v in 60:40 ethanol:water vehicle were prepared fresh before use. EPIOCULAR tissues were acclimated before treatments for 24 hours and later treated topically for 30 minutes with KLS-13022 (0.01, 0.1, 0.3 1, 3% w/v). Methyl acetate was used as positive eye irritant control. Tissue viability levels were measured by MTT reduction assay method after material treatments. The levels of tissue viability after each material treatment was compared to vehicle control group to determine any potential ocular irritation activity.
# Average levels of tissue viability were calculated for each treatment group. According to OECD 492 protocol, predicted positive eye irritation activities were determined when obtaining <60% tissue viability. […] Primary cornea-like inserts were used from human origin and purchased from MatTek (Ashland, Mass.). […] Tissues were cultured with standard conditions (37° C., 95% v/v air, 5% v/v CO2) and acclimated for 18+3 hours before dosing procedures.
compound,measurement,setting,value
"C=C(C)[C@@H]1CCC(C)=C[C@H]1c1c(O)cc(CC2CN(C(=O)OCC)C2)cc1O [KLS-13022, ethyl 3-(3,5-dihydroxy-4-((1R,6R)-3-methyl-6-(prop-1-en-2-yl)cyclohex-2-enyl)benzyl)azetidine-1-carboxylate]",IC50,[1],380 nM
same,CXCL5 inhibition,[2],100%
same,IC50,"[2]; Homo sapiens, NHEK, light or radiation study, read-out: IC50 of CXCL5 inhibition",50 nM
same,non-toxic concentration range,[3],≤ 1.67 µM
same,toxic concentration,[3],3.3 µM
same,tissue viability,[4],≥ 60%

# From patent US20220409578A1, “FUNCTIONALIZED 1,3-BENZENE DIOLS AND THEIR METHOD OF USE FOR THE TREATMENT OF RADIATION DERMATITIS AND OTHER SKIN DISORDERS” (KANNALIFE SCIENCES, INC., priority 2019, published 2022)
